Measurements published in US9018383B2, “Acylamino-substituted cyclic carboxylic acid derivatives and their use as pharmaceuticals” (Sanofi, priority 2009, dated 2015).

What follows are compounds tested against human Edg-2 receptor (Homo sapiens, UniProt Q92633) (assay: Determination of Edg-2 receptor inhibition by FLIPR measurements (LPA-mediated calcium liberation)). Conditions: CHO cells overexpressing human Edg-2 receptor, LPA 100 nM, fluo-4 calcium fluorescence; read-out: Inhibitory concentrations IC50 for inhibition of the Edg-2 receptor.
human Edg-2 receptor, sequence (Q92633 whole entry): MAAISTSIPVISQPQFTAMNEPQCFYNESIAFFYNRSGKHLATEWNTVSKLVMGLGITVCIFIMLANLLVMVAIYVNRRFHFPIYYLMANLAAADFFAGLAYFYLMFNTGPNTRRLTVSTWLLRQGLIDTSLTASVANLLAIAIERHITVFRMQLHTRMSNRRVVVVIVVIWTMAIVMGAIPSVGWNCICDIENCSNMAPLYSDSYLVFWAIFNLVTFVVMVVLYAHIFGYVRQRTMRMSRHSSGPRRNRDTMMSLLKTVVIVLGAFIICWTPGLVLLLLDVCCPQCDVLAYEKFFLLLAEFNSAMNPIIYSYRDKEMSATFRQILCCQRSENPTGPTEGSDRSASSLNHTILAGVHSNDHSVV
Format: cell-based
Procedure, shortened: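 CHO cells stably overexpressing human Edg-2, loaded with fluo-4 AM, were pre-incubated ~5 min with compound (≤0.3% DMSO), then stimulated with 100 nM LPA 18:1 in HBSS/HEPES/probenecid, pH 7.5. Peak calcium fluorescence over ~3 min, baseline-corrected, versus DMSO gave % inhibition; IC50 from triplicates.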

IC50	Compound
< 100 nM	COc1ncc(C(=O)N[C@]2(C(=O)O)CC[C@H](C)CC2)cc1-c1cccc(Cl)c1Cl [Example 310]
< 100 nM	CC[C@H]1CC[C@](NC(=O)c2cc3c(c(-c4ccc(OC)c(Cl)c4)c2)OC(F)(F)O3)(C(=O)O)CC1 [Example 463, Cis-1-{[7-(3-Chloro-4-methoxy-phenyl)-2,2-difluoro-benzo[1,3]dioxole-5-carbonyl]-amino}-4-ethyl-cyclohexanecarboxylic acid]
< 100 nM	COc1c(F)cc(C(=O)NC2(C(=O)O)CCCCCC2)cc1OCCc1cccc(CCO)c1 [Example 393, 1-(3-Fluoro-5-{2-[3-(2-hydroxy-ethyl)-phenyl]-ethoxy}-4-methoxy-benzoylamino)-cycloheptanecarboxylic acid]
100 to 1000 nM	COc1ccc(C(=O)NC2(C(=O)O)CCC(C(C)(C)C)CC2)cc1OCCc1cccc(C)c1 (stereo not shown) [Example 366]
100 to 1000 nM	CCc1ncc(C(=O)N[C@]2(C(=O)O)CC[C@@H](C)CC2)cc1OCCc1cccc(Cl)c1 [Example 436, trans-1-({5-[2-(3-Chloro-phenyl)-ethoxy]-6-ethyl-pyridine-3-carbonyl}-amino)-4-methyl-cyclohexanecarboxylic acid]
< 100 nM	CC[C@H]1CC[C@](NC(=O)c2ccc(OC)c(-c3cccc(OC(F)(F)F)c3)c2)(C(=O)O)CC1 [Example 327]
100 to 1000 nM	COc1ccc(C(=O)NC2(C(=O)O)CCCC(C)C2)cc1OCCc1cccc(C)c1 (stereo not shown) [Example 372]
100 to 1000 nM	CC[C@H]1CC[C@@](NC(=O)c2cnc(OC)c(-c3cc(F)c(F)c(F)c3)c2)(C(=O)O)CC1 [Example 312]
< 100 nM	CC[C@H]1CC[C@](NC(=O)c2cnc(OC)c(OCCc3cccc(OC(F)(F)F)c3)c2)(C(=O)O)CC1 [Example 399, cis-4-Ethyl-1-({6-methoxy-5-[2-(3-trifluoromethoxy-phenyl)-ethoxy]-pyridine-3-carbonyl}-amino)-cyclohexanecarboxylic acid]
< 100 nM	COc1ccc(-c2cc(C(=O)N[C@]3(C(=O)O)CC[C@@H](C)CC3)cnc2OC)cc1Cl [Example 320]
< 100 nM	CC[C@H]1CC[C@](NC(=O)c2cnc(OC)c(OCCc3cccc(Cl)c3)c2)(C(=O)O)CC1 [Example 357, cis-1-({5-[2-(3-Chloro-phenyl)-ethoxy]-6-methoxy-pyridine-3-carbonyl}-amino)-4-ethyl-cyclohexanecarboxylic acid]
< 100 nM	COc1ccc(C(=O)N[C@]2(C(=O)O)CC[C@H](C)CC2)cc1-c1cccc(C(F)(F)F)c1 [Example 333]
< 100 nM	CC[C@H]1CC[C@@](NC(=O)c2ccc(OCCO)c(OCCc3cccc(Cl)c3)c2)(C(=O)O)CC1 [Example 418, trans-1-[3-[2-(3-Chloro-phenyl)-ethoxy]-4-(2-hydroxy-ethoxy)-benzoylamino]-4-ethyl-cyclohexanecarboxylic acid]
100 to 1000 nM	COc1ncc(-c2cc(C(=O)N[C@]3(C(=O)O)CC[C@@H](C)CC3)cc(F)c2OC)cc1Cl [Example 449, 1-[3-(5-Chloro-6-methoxy-pyridin-3-yl)-5-fluoro-4-methoxy-benzoylamino]-4-methyl-cyclohexanecarboxylic acid]
< 100 nM	CC[C@@H]1C[C@]1(NC(=O)c1cnc(OC)c(OCCc2cccc(Cl)c2)c1)C(=O)O [Example 361, (1R,2R)-1-({5-[2-(3-Chloro-phenyl)-ethoxy]-6-methoxy-pyridine-3-carbonyl}-amino)-2-ethyl-cyclopropanecarboxylic acid]
< 100 nM	COc1ncc(C(=O)N[C@]2(C(=O)O)CC[C@H](C)CC2)cc1-c1cccc(OC(F)(F)F)c1 [Example 307]
100 to 1000 nM	CC[C@@H]1C[C@]1(NC(=O)c1ccc(OC)c(-c2cccc(C(F)(F)F)c2)c1)C(=O)O [Example 427, (1R,2R)-2-Ethyl-1-[(6-methoxy-3′-trifluoromethyl-biphenyl-3-carbonyl)-amino]-cyclopropanecarboxylic acid]
< 100 nM	CC[C@H]1CC[C@](NC(=O)c2cc(F)c(OC)c(-c3cnc(OC)c(Cl)c3)c2)(C(=O)O)CC1 [Example 450, 1-[3-(5-Chloro-6-methoxy-pyridin-3-yl)-5-fluoro-4-methoxy-benzoylamino]-4-ethyl-cyclohexanecarboxylic acid]
< 100 nM	COc1ncc(C(=O)N[C@]2(C(=O)O)CC[C@@H](C)CC2)cc1-c1cccc(C(F)(F)F)c1 [Example 318]

The next lines start with the compound.

Compound	IC50
COc1ccc(C(=O)NC2(C(=O)O)CCCCCC2)cc1OCCc1cccc(Cl)c1 [Example 10]	< 100 nM
COc1ccc(C(=O)NC2(C(=O)O)CCCCCC2)cc1OCCc1cccc(Cl)c1F [Example 21]	100 to 1000 nM
COc1ncc(C(=O)NC2(C(=O)O)CCCCCC2)cc1-c1cc(Cl)cc(C(F)(F)F)c1 [Example 99]	< 100 nM
CCC(COc1cc(C(=O)NC2(C(=O)O)CCCCCC2)ccc1OC)c1ccccc1 (stereo not shown) [Example 14]	100 to 1000 nM
COc1ccc(C(=O)NC2(C(=O)O)CCCCCC2)cc1OCCc1cccc(CCO)c1 [Example 107, 1-(3-{2-[3-(2-Hydroxy-ethyl)-phenyl]-ethoxy}-4-methoxy-benzoylamino)-cycloheptanecarboxylic acid]	< 100 nM
cis-1-{[5-(3-Chloro-4-methoxy-phenyl)-6-methoxy-pyridine-3-carbonyl]-amino}-4-ethyl-cyclohexanecarboxylic acid [Example 305]	< 100 nM
COc1ncc(C(=O)NC2(C(=O)O)CCCCCC2)cc1-c1cc(F)c(F)c(F)c1 [Example 98]	< 100 nM
COc1ccc(C(=O)NC2(C(=O)O)CCCC(O)CC2)cc1OCCc1cccc(C)c1 (stereo not shown) [Example 53, 4-Hydroxy-1-[4-methoxy-3-(2-m-tolyl-ethoxy)-benzoylamino]-cycloheptanecarboxylic acid]	100 to 1000 nM
COc1ccc(C(=O)NC2(C(=O)O)CCCCCC2)cc1CCCc1cccc(C)c1 [Example 72, 1-[4-Methoxy-3-(3-m-tolyl-propyl)-benzoylamino]-cycloheptanecarboxylic acid]	< 100 nM
COc1ncc(C(=O)N[C@]2(C(=O)O)CC[C@@H](C)CC2)cc1OCCc1cc(OC(F)(F)F)ccc1F [Example 82, trans-1-({5-[2-(2-Fluoro-5-trifluoromethoxy-phenyl)-ethoxy]-6-methoxy-pyridine-3-carbonyl}-amino)-4-methyl-cyclohexanecarboxylic acid]	< 100 nM
COc1ccc(C(=O)NC2(C(=O)O)CCCCCC2)cc1OCCc1cc(OC(F)(F)F)ccc1F [Example 5]	< 100 nM
COc1ccc(C(=O)NC2(C(=O)O)CCCC(C)CC2)cc1OCCc1cccc(C)c1 (stereo not shown) [Example 26]	< 100 nM
COc1ccc(C(=O)NC2(C(=O)O)CCCCC2)cc1OCCc1cccc(C)c1 [Example 38]	100 to 1000 nM
COc1ccc(C(=O)NC2(C(=O)O)CCC3(CC3)CC2)cc1OCCc1cccc(C)c1 [Example 57, 6-[4-Methoxy-3-(2-m-tolyl-ethoxy)-benzoylamino]-spiro[2.5]octane-6-carboxylic acid]	< 100 nM
COc1ccc(C(=O)NC2(C(=O)O)CCCC2OC)cc1OCCc1cccc(C)c1 (stereo not shown) [Example 68, 2-Methoxy-1-[4-methoxy-3-(2-m-tolyl-ethoxy)-benzoylamino]-cyclopentanecarboxylic acid]	< 100 nM
Cc1cccc(CCOc2cc(C(=O)NC3(C(=O)O)CCCCCC3)ccc2Br)c1 [Example 65, 1-[4-Bromo-3-(2-m-tolyl-ethoxy)-benzoylamino]-cycloheptanecarboxylic acid]	< 100 nM
COc1ncc(C(=O)NC2(C(=O)O)CCCCCC2)cc1-c1cccc(C#N)c1 [Example 92, 1-{[5-(3-Cyano-phenyl)-6-methoxy-pyridine-3-carbonyl]-amino}-cycloheptanecarboxylic acid]	1000 to 30000 nM
CCC1CCC(NC(=O)c2ccc(OC)c(OCCc3cccc(C)c3)c2)(C(=O)O)CC1 (stereo not shown) [Example 30]	< 100 nM
COc1ccc(C(=O)NC2(C(=O)O)CCC(C)C2)cc1OCCc1cccc(C)c1 (stereo not shown) [Example 33]	< 100 nM
CC[C@H]1CC[C@@](NC(=O)c2cnc(OC)c(-c3cccc(OC(F)(F)F)c3)c2)(C(=O)O)CC1 [Example 306]	< 100 nM
CC[C@H]1CC[C@](NC(=O)c2ccc(C3COC3)c(OCCc3cccc(C)c3)c2)(C(=O)O)CC1 [Example 130, cis-4-Ethyl-1-[4-oxetan-3-yl-3-(2-m-tolyl-ethoxy)-benzoylamino]-cyclohexanecarboxylic acid]	< 100 nM
COc1ccc(C(=O)NC2(C(=O)O)CCCC2OCc2ccccc2)cc1OCCc1cccc(C)c1 (single isomer, unassigned) [Example 66, 2-Benzyloxy-1-[4-methoxy-3-(2-m-tolyl-ethoxy)-benzoylamino]-cyclopentanecarboxylic acid]	100 to 1000 nM
CC[C@H]1CC[C@](NC(=O)c2cnc(OC)c(-c3cc(Cl)cc(C(F)(F)F)c3)c2)(C(=O)O)CC1 [Example 302]	< 100 nM
COc1ccc(C(=O)NC2(C(=O)O)CCC(CO)CC2)cc1OCCc1cccc(C)c1 (stereo not shown) [Example 58, 4-Hydroxymethyl-1-[4-methoxy-3-(2-m-tolyl-ethoxy)-benzoylamino]-cyclohexanecarboxylic acid]	1000 to 30000 nM
COc1ncc(C(=O)NC2(C(=O)O)CCCCCC2)cc1OCCc1cccc(C)c1 [Example 77, 1-{[6-Methoxy-5-(2-m-tolyl-ethoxy)-pyridine-3-carbonyl]-amino}-cycloheptanecarboxylic acid]	< 100 nM
COc1ncc(C(=O)N[C@]2(C(=O)O)CC[C@H](C)CC2)cc1OCCc1cc(C)ccc1C [Example 86, cis-1-({5-[2-(2,5-Dimethyl-phenyl)-ethoxy]-6-methoxy-pyridine-3-carbonyl}-amino)-4-methyl-cyclohexanecarboxylic acid]	1000 to 30000 nM
COc1ccc(C(=O)NC2(C(=O)O)CCC3CC3CC2)cc1OCCc1cccc(C)c1 (stereo not shown) [Example 75]	< 100 nM
